Where “and” joins values, the source holds several entries; their conditions need not be identical. Equal entries are not always repeated.
Experiments:
HIV RNA = assay: RNA CaptureSeq of HIV RNA splicing in infected PBMCs; assay type: cell-based, HIV-1
Experimental: Total RNA was extracted from infected and uninfected PBMC samples using TRIzol reagent (Invitrogen) following the manufacturer's protocol. The RNA concentrations and purity were determined using the RNA 6000 Bioanalyzer kit (Agilent). For cDNA synthesis, 1 μg of total RNA was treated with DNase I (Invitrogen) and then utilized as a template for reverse transcription using the Verso cDNA kit with a blend of random hexamers and anchored oligo-dT (Thermo Scientific), according to the manufacturer's instructions. After KAPA Hyper Prep (ROCHE) library preparation from 1 μg total RNA, we proceeded with SeqCap EZ capture (ROCHE) following the manufacturer's recommendations. Hybrid selection was performed with a custom SeqCap EZ Choice Library (Roche NimbleGen) containing the following regions; chromosome 8 (9,760,617 to 9,761,780 and 65,285,285 to 65,296,944). chromosome 20 (61,797,549 to 61,812,855), chromosome 1 (1,102,000 to 1,106,000), chromosome 13 (92,000,074 to 92,006,833), chromosome 15 (22,512,831 to […]) and the genome of the HIV Ada8 strain. This library was designed through the NimbleDesign portal (v1.2.R1) using genome build hg19 NCBI Build 37.1/GRCh37. Sequencing was performed on a NextSeq 500 (Illumina) with 18 samples on a HighOutput Cartridge (2×400 million reads of 75 bases each).
To profile viral transcriptional events modulated by ABX464 and thereby assess the full depth of the HIV transcriptome, we employed a recently described targeted RNA capture and sequencing strategy (RNA CaptureSeq). This strategy involves the construction of tiling arrays across the HIV genome, against which cDNAs are hybridized, eluted and sequenced. RNA CaptureSeq is similar to previous in-solution capture methods and exome sequencing approaches, but when combined with deep-sequencing technology, provides saturating coverage and permits the robust assembly of rare and unannotated HIV transcripts.
PBMCs from 6 HIV-negative donors were infected with the YU-2 strain, followed by treatment with ABX464. […] After cDNA capture from infected cells that were untreated or treated with ABX464, libraries were prepared and sequenced using an Illumina sequencing facility. To highlight potential new splicing events induced by ABX464, we used a custom bioinformatics pipeline with the main step involving the assembly of putative transcripts from targeted RNA sequencing reads to construct contigs (Illumina paired-end 2×75 bp) (FIGS. 6 A and B). The putative transcripts (contigs) were then mapped to the HIV genome. The HIV profiling datasets used in our analysis yielded high sequence coverage (2 to 30 million reads for the 9 kb genome), allowing deep quantification of HIV splice variants.
To test whether enhanced splicing by ABX464 generates new viral RNA variants, the splicing events were filtered and analyzed. After mapping the contigs to the genome of the YU-2 strain, the latter was used as an anchor for additional clustering and assembly of new HIV transcripts. The partial gene structures generated by the spliced alignment were merged whenever they shared consecutive splicing sites spanning an intronic viral sequence. The superstructures so formed correspond to all possible HIV gene structures for which each complete exon is supported by at least one of the alignments. At the HIV transcript level, this led to the formation of superassemblies, where each superassembly is a merge of initial contigs matching a predicted superstructure. […] FIG. 1C and Table III present the distribution of the number of contigs that were merged to form one superassembly for each donor. […]

miR-429 = assay: RNA CaptureSeq read counts at the control locus miR-429; assay type: cell-based, human; conditions: PBMCs; control locus outside the miR-124 region
Experimental: Total RNA was extracted from infected and uninfected PBMC samples using TRIzol reagent (Invitrogen) following the manufacturer's protocol. The RNA concentrations and purity were determined using the RNA 6000 Bioanalyzer kit (Agilent). For cDNA synthesis, 1 μg of total RNA was treated with DNase I (Invitrogen) and then utilized as a template for reverse transcription using the Verso cDNA kit with a blend of random hexamers and anchored oligo-dT (Thermo Scientific), according to the manufacturer's instructions. After KAPA Hyper Prep (ROCHE) library preparation from 1 μg total RNA, we proceeded with SeqCap EZ capture (ROCHE) following the manufacturer's recommendations. […] Sequencing was performed on a NextSeq 500 (Illumina) with 18 samples on a HighOutput Cartridge (2×400 million reads of 75 bases each).
miR-124 is encoded from three independent genes, miR-124-1, miR-124-2, and miR-124-3, located on human chromosomes 8 and 20 (FIG. 4A). […] The total number of reads for untreated as well as ABX464 treated samples varied between 2 and 30 million in infected and uninfected PBMCs (Table V). The number of reads from the three loci encoding miR-124 in the treated samples were 4- to 12-fold higher than in the untreated samples (FIG. 4B, Table V), confirming that ABX464 led to a large increase in miR-124. […]

[1] = PBMCs infected with YU2, treated with ABX464, one value per donor library

## FC(F)(F)Oc1ccc(Nc2ccc3cccc(Cl)c3n2)cc1 [ABX464, 8-chloro-N-(4-(trifluoromethoxy)phenyl)quinolin-2-amine]
HIV RNA; ABX464-treated PBMC samples infected with YU-2
  assembled contigs corresponding to spliced RNAs: 90%
HIV RNA; [1]
  contig counts spliced RNA transcripts Gag: 18 and 42 and 25 and 13 and 19 and 26
  contig counts spliced RNA transcripts Pol: 67 and 61 and 17 and 14 and 12 and 35
  contig counts spliced RNA transcripts Vif: 32 and 34 and 15 and 16 and 12 and 25
  contig counts spliced RNA transcripts env: 59 and 42 (2×) and 37 and 13 and 35
  contig counts spliced RNA transcripts rev: 23 and 21 and 17 and 9 and 12 and 29
  contig counts spliced RNA transcripts tat: 16 and 18 (2×) and 19 and 15 and 24
  contig counts spliced RNA transcripts vpr: 14 (2×) and 9 and 12 (2×) and 11
  contig counts spliced RNA transcripts vpu: 7 and 5 and 13 and 11 (2×) and 17
HIV RNA; PBMCs infected with YU2, treated with ABX464, one value per donor library (D1, D4-D8)
  contig counts Complete_mRNA: 11 and 13 and 6 (2×) and 32 and 15
miR-429
  expression of miR-429: no effect

Reference: patent US20220145406A1, “BIOMARKERS, AND USES IN TREATMENT OF VIRAL INFECTIONS, INFLAMMATIONS, OR CANCER” (ABIVAX, priority 2018, published 2022)
